Values after ≈ are worked out from the molar mass of the structure shown.
Assays:
[1] = system: Streptococcus pyogenes (DSM20565); assay: MIC assay; format: cell-based; details: two-fold serial dilutions in liquid media, n = 2–3
[2] = system: Candida glabrata (DSM11226); assay: MIC assay; format: cell-based; details: Nakaseomyces glabratus, two-fold serial dilutions in liquid media, n = 2–3
[3] = Cytotoxic assay (resazurin); details: human, A498 kidney epithelial cells
[4] = system: Propionibacterium acnes (ATCC6919); assay: MIC assay; format: cell-based; details: Cutibacterium acnes, two-fold serial dilutions in liquid media, n = 2–3
[5] = system: Clostridium botulinum (DSM1985); assay: microbe, parasite or virus in culture; format: cell-based; details: DSM1985, read-out: MIC Clostridium botulinum (DSM1985)
[6] = Cytotoxic assay (resazurin); details: human, BEAS-2B normal lung epithelial cells
[7] = system: Vibrio alginolyticus (DSM2171); assay: MIC assay; format: cell-based; details: two-fold serial dilutions in liquid media, n = 2–3
[8] = system: Bacillus anthracis (CNR-charbon_04022); assay: microbe, parasite or virus in culture; format: cell-based; details: read-out: MIC Bacillus anthracis (CNR-charbon_04022)
[9] = system: Mycobacterium abscessus S (CIP 104536^T); assay: MIC assay (REMA); format: cell-based; details: REMA microdilution, n = 2–3
[10] = system: Mycobacterium abscessus R(CIP 104536^T); assay: MIC assay (REMA); format: cell-based; details: REMA microdilution, n = 2–3
[11] = system: Mycobacterium tuberculosis H37Rv (mc^26230); assay: MIC assay (REMA); format: cell-based; details: REMA microdilution, n = 2–3
[12] = Cytotoxic assay (resazurin); details: human, IMR-90 normal lung fibroblasts
[13] = system: B. subtilis ATCC6633; assay: MIC assay; format: cell-based, Bacillus subtilis; details: Bacillus subtilis, ATCC6633; two-fold serial dilutions in liquid media; n = 2–3
[14] = system: MRSA (ATCCBAA-1717); assay: MIC assay; format: cell-based, methicillin-resistant S. aureus; details: Staphylococcus aureus, read-out: MIC MRSA (ATCCBAA-1717)
[15] = system: Enterococcus faecalis (DSM2570); assay: MIC assay; format: cell-based; details: two-fold serial dilutions in liquid media, n = 2–3
[16] = system: Salmonella enterica (CIP80.39); assay: MIC assay; format: cell-based; details: two-fold serial dilutions in liquid media, n = 2–3
[17] = system: Listeria monocytogenes (DSM20600); assay: MIC assay; format: cell-based; details: two-fold serial dilutions in liquid media, n = 2–3
[18] = system: Candida auris (DSM21092); assay: MIC assay; format: cell-based; details: Candidozyma auris, two-fold serial dilutions in liquid media, n = 2–3
[19] = system: Clostridium difficile (DSM1296); assay: MIC assay; format: cell-based; details: Clostridioides difficile, two-fold serial dilutions in liquid media, n = 2–3
[20] = Cytotoxic assay, summary over the six human cell types; details: human, 48 h exposure
[21] = system: S. aureus ATCC6538P; assay: MIC assay; format: cell-based, Staphylococcus aureus; details: Staphylococcus aureus, ATCC6538P; two-fold serial dilutions in liquid media; n = 2–3
[22] = system: Francisella tularensis (NR-643); assay: microbe, parasite or virus in culture; format: cell-based; details: read-out: MIC Francisella tularensis (NR-643)
[23] = system: P. aeruginosa ATCC9027; assay: MIC assay; format: cell-based, Pseudomonas aeruginosa; details: two-fold serial dilutions in liquid media, n = 2–3
[24] = system: Enterococcus faecium (DSM20477); assay: MIC assay; format: cell-based; details: two-fold serial dilutions in liquid media, n = 2–3
[25] = system: Brucella melitensis (NR-256); assay: microbe, parasite or virus in culture; format: cell-based; details: read-out: MIC Brucella melitensis (NR-256)
[26] = system: Aspergillus fumigatus (DSM819); assay: MIC assay; format: cell-based; details: two-fold serial dilutions in liquid media, n = 2–3
[27] = system: Bacillus cereus (DSM31); assay: MIC assay; format: cell-based; details: two-fold serial dilutions in liquid media, n = 2–3
[28] = system: Enterobacter cloacae (DSM30054); assay: MIC assay; format: cell-based; details: two-fold serial dilutions in liquid media, n = 2–3
[29] = system: Candida tropicalis (DSM9419); assay: MIC assay; format: cell-based; details: two-fold serial dilutions in liquid media, n = 2–3
[30] = system: Fusarium oxysporum (DSM62316); assay: MIC assay; format: cell-based; details: two-fold serial dilutions in liquid media, n = 2–3
[31] = system: E. coli ATCC8739; assay: MIC assay; format: cell-based, Escherichia coli; details: Escherichia coli, ATCC8739; two-fold serial dilutions in liquid media; n = 2–3
[32] = system: Shigella flexneri (ATCC12022); assay: MIC assay; format: cell-based; details: two-fold serial dilutions in liquid media, n = 2–3
[33] = system: M. smegmatis ATCC700084; assay: MIC assay (REMA); format: cell-based, Mycobacterium smegmatis; details: Mycolicibacterium smegmatis, ATCC700084, REMA microdilution, n = 2–3
[34] = system: Yersinia pestis (NR-641); assay: microbe, parasite or virus in culture; format: cell-based; details: read-out: MIC Yersinia pestis (NR-641)
[35] = system: Cryptococcus neoformans (DSM11959); assay: MIC assay; format: cell-based; details: two-fold serial dilutions in liquid media, n = 2–3
[36] = system: C. albicans DSM10697; assay: MIC assay; format: cell-based, Candida albicans; details: Candida albicans, DSM10697; two-fold serial dilutions in liquid media; n = 2–3
[37] = system: Clostridium perfringens (ATCC13124); assay: microbe, parasite or virus in culture; format: cell-based; details: ATCC13124, read-out: MIC Clostridium perfringens (ATCC13124)
[38] = Cytotoxic assay (resazurin); details: human, HaCaT normal epidermal keratinocytes
[39] = system: Helicobacter pylori (ATCC43504); assay: MIC assay; format: cell-based; details: two-fold serial dilutions in liquid media, n = 2–3
[40] = Cytotoxic assay (resazurin); details: human, Caco-2
[41] = system: Klebsiella pneumonia (DSM26371); assay: MIC assay; format: cell-based; details: two-fold serial dilutions in liquid media, n = 2–3
[42] = Cytotoxic assay (resazurin); details: human, HepG2 liver cells
[43] = system: Acinetobacter baumannii (DSM30007); assay: MIC assay; format: cell-based; details: two-fold serial dilutions in liquid media, n = 2–3

## CC(=O)Nc1ccc2c(c1)C(=O)/C(=C/c1ccc(OC(C)C)cc1)O2 [Compound 20, (Z)-N-(2-(4-isopropoxybenzylidene)-3-oxo-2,3-dihydrobenzofuran-5-yl)acetamide]
[1]
  MIC: 50 µM (≈ 16.9 µg/mL)
[2]
  MIC: 50 µM (≈ 16.9 µg/mL)
[3]
  CC50 at 48 h: 453 µM
  IC50 at 48 h: 453 µM
[4]
  MIC: > 100 µM
[5]
  MIC: 3.12 µM (≈ 1.05 µg/mL)
[6]
  CC50 at 48 h: 126 µM
  IC50 at 48 h: 126 µM
[7]
  MIC: 50 µM (≈ 16.9 µg/mL)
[8]
  MIC: 6.25 µM (≈ 2.11 µg/mL)
[9]; Mycobacteroides abscessus, CIP104536, S morphotype
  MIC: > 100 µM
[9]; S morphotype
  MIC Mycobacterium abscessus S (CIP 104536^T): inactive
[10]; Mycobacteroides abscessus, CIP104536, R morphotype
  MIC: > 100 µM
[10]; R morphotype
  MIC Mycobacterium abscessus R(CIP 104536^T): inactive
[11]; Mycobacterium tuberculosis, H37RV
  MIC: > 100 µM
[11]
  MIC Mycobacterium tuberculosis H37Rv (mc^26230): inactive
[12]
  CC50 at 48 h: 438 µM
  IC50 at 48 h: 438 µM
[13]
  MIC: 25 µM (≈ 8.43 µg/mL)
[14]
  MIC: 25 µM (≈ 8.43 µg/mL)
[15]
  MIC: 100 µM (≈ 33.7 µg/mL)
[16]
  MIC: 50 µM (≈ 16.9 µg/mL)
[17]
  MIC: 6.25 µM (≈ 2.11 µg/mL)
[18]
  MIC: 12.5 µM (≈ 4.22 µg/mL)
[19]
  MIC: 3.12 µM (≈ 1.05 µg/mL)
[20]; Highest CC50, highest of the six human cell types
  CC50 at 48 h: > 500 µM
[20]; Lowest CC50, lowest of the six human cell types
  CC50 at 48 h: 126 µM
[21]
  MIC: 12.5 µM (≈ 4.22 µg/mL)
[22]
  MIC: 12.5 µM (≈ 4.22 µg/mL)
[23]; Pseudomonas aeruginosa, ATCC9027
  MIC: > 100 µM
[23]
  MIC: >100 µM
[24]
  MIC: 25 µM (≈ 8.43 µg/mL)
[25]
  MIC: 12.5 µM (≈ 4.22 µg/mL)
[26]; Aspergillus fumigatus, DSM819
  MIC: > 100 µM
[26]
  MIC Aspergillus fumigatus (DSM819): inactive
[27]
  MIC: 25 µM (≈ 8.43 µg/mL)
[28]; Enterobacter cloacae, DSM30054
  MIC: > 100 µM
[28]
  MIC: >100 µM
[29]
  MIC: 100 µM (≈ 33.7 µg/mL)
[30]
  MIC: 25 µM (≈ 8.43 µg/mL)
[31]
  MIC: 25 µM (≈ 8.43 µg/mL)
[32]
  MIC: 50 µM (≈ 16.9 µg/mL)
[33]
  MIC: 50 µM (≈ 16.9 µg/mL)
[34]
  MIC: 12.5 µM (≈ 4.22 µg/mL)
[35]
  MIC: 25 µM (≈ 8.43 µg/mL)
[36]
  MIC: 50 µM (≈ 16.9 µg/mL)
[37]
  MIC: > 100 µM
[38]
  CC50 at 48 h: 323 µM
  IC50 at 48 h: 323 µM
[39]
  MIC: 12.5 µM (≈ 4.22 µg/mL)
[40]
  CC50 at 48 h: 186 µM
  IC50 at 48 h: 186 µM
[41]; Klebsiella pneumoniae, DSM26371
  MIC: > 100 µM
[41]
  MIC: >100 µM
[42]
  CC50 at 48 h: > 500 µM
  IC50 at 48 h: > 500 µM
[43]
  MIC: 25 µM (≈ 8.43 µg/mL)

— PMC11047580, “Design and Synthesis of Novel Amino and Acetamidoaurones with Antimicrobial Activities” (Antibiotics, 2024)
